ChEMBL document CHEMBL3232853, “Alkylsulfone-containing trisubstituted cyclohexanes as potent and bioavailable chemokine receptor 2 (CCR2) antagonists” (Bioorg Med Chem Lett, 2014)
Calls of active or inactive are those of the source. No cut-off for these calls is given here.

Columns and labels:
Rattus norvegicus [1] = organism: Rattus norvegicus; assay: Inhibition of rat sodium channel site 2 at 10 uM relative to control
[2] = target: C-C chemokine receptor type 2 (Homo sapiens, UniProt P41597); assay: Displacement of [125I]-labeled human MCP1 from CCR2 in human PBMC
Mus musculus [3] = assay: Antiinflammatory activity in thioglycollate-induced human CCR2 knock-in mouse peritonitis model assessed as reduction of Ly6C+F4/80+ cell numbers in peritoneal cavity at 50 mg/kg, po administered 1 hr prior to thioglycollate challenge measured after 6 hrs; assay type: functional, organism-based; set-up: dose 50 mg/kg
Liver microsome = details: human, microsomes, 10 min
Description: Metabolic stability in human liver microsomes assessed as compound remaining after 10 mins

[4] = Clearance in cynomolgus monkey at 1 mg/kg, iv; assay type: ADME, organism-based, Macaca fascicularis; set-up: dose 1 mg/kg, route intravenous; details: in vivo
Cynomolgus monkey [5] = assay: Oral bioavailability in cynomolgus monkey at 14 mg/kg; assay type: ADME, organism-based, Macaca fascicularis; details: in vivo
Mus musculus [6] = assay: Antiinflammatory activity in thioglycollate-induced human CCR2 knock-in mouse peritonitis model assessed as reduction of Ly6C+F4/80+ cell numbers in peripheral blood at 50 mg/kg, po administered 1 hr prior to thioglycollate challenge measured after 6 hrs; assay type: functional, organism-based; set-up: dose 50 mg/kg
[7] = Clearance in dog at 1 mg/kg, iv; assay type: ADME, organism-based, Canis lupus familiaris; set-up: dose 1 mg/kg, route intravenous; details: in vivo
Rattus norvegicus [8] = assay: Oral bioavailability in rat at 72 mg/kg; assay type: ADME, organism-based; details: in vivo
[9] = Clearance in mouse at 3 mg/kg, iv; assay type: ADME, organism-based; set-up: dose 3 mg/kg, route intravenous; details: in vivo
[10] = Permeability across apical to basolateral side in human Caco2 cells; assay type: ADME, cell-based; details: Caco-2, read-out: permeability
[11] = Clearance in rat at 6 mg/kg, iv; assay type: ADME, organism-based; set-up: dose 6 mg/kg, route intravenous; details: in vivo
Canis familiaris [12] = assay: Oral bioavailability in dog at 14 mg/kg; assay type: ADME, organism-based, Canis lupus familiaris; details: in vivo
Mus musculus [13] = assay: Oral bioavailability in mouse at 54 mg/kg; assay type: ADME, organism-based; details: in vivo
Homo sapiens = organism: Homo sapiens; assay: Inhibition of sodium channel (unknown origin) at 10 uM at 4 Hz by patch clamp assay relative to control
Rattus norvegicus [14] = assay: Oral bioavailability in rat at 43 mg/kg; assay type: ADME, organism-based; details: in vivo
Cynomolgus monkey [15] = assay: Oral bioavailability in cynomolgus monkey at 10 mg/kg; assay type: ADME, organism-based, Macaca fascicularis; details: in vivo
Mus musculus [16] = assay: Oral bioavailability in mouse at 100 mg/kg; assay type: ADME, organism-based; details: in vivo
Mus musculus [17] = organism: Mus musculus; assay: Antiinflammatory activity in thioglycollate-induced wild type mouse peritonitis model; assay type: functional, organism-based
[18] = Clearance in mouse at 5 mg/kg, iv; assay type: ADME, organism-based; set-up: dose 5 mg/kg, route intravenous; details: in vivo
Mus musculus [19] = assay: Antiinflammatory activity in thioglycollate-induced human CCR2 knock-in mouse peritonitis model assessed as reduction of Ly6C+F4/80+ cell number peritoneal cavity at 100 mg/kg, po administered 1 hr prior to thioglycollate challenge measured after 6 hrs; assay type: functional, organism-based; set-up: dose 100 mg/kg
Mus musculus [20] = assay: Antiinflammatory activity in thioglycollate-induced human CCR2 knock-in mouse peritonitis model assessed as reduction of Ly6C+F4/80+ cell numbers in peripheral blood at 100 mg/kg, po administered 1 hr prior to thioglycollate challenge measured after 6 hrs; assay type: functional, organism-based; set-up: dose 100 mg/kg
[21] = Clearance in rat at 4 mg/kg, iv; assay type: ADME, organism-based; set-up: dose 4 mg/kg, route intravenous; details: in vivo
Canis familiaris [22] = assay: Oral bioavailability in dog at 10 mg/kg; assay type: ADME, organism-based, Canis lupus familiaris; details: in vivo
[23] = target: Voltage-gated inwardly rectifying potassium channel KCNH2 (Homo sapiens, UniProt Q12809); assay: Inhibition of human ERG by FLIPR assay
[24] = Antagonist activity at CCR2 in human monocytes assessed as reduction of chemotaxis in presence of […]

Chain of C-C chemokine receptor type 2 (P41597 whole entry): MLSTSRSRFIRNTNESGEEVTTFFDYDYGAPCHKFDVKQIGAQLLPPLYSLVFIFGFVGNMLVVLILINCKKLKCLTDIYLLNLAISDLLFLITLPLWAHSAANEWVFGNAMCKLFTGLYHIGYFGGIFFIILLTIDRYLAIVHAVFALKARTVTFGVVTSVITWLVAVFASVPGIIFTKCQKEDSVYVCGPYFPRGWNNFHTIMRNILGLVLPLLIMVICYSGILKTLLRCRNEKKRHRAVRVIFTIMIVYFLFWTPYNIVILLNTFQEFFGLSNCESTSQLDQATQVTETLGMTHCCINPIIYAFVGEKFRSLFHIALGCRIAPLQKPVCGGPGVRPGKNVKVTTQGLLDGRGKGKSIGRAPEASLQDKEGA
Chain of Voltage-gated inwardly rectifying potassium channel KCNH2 (Q12809 whole entry): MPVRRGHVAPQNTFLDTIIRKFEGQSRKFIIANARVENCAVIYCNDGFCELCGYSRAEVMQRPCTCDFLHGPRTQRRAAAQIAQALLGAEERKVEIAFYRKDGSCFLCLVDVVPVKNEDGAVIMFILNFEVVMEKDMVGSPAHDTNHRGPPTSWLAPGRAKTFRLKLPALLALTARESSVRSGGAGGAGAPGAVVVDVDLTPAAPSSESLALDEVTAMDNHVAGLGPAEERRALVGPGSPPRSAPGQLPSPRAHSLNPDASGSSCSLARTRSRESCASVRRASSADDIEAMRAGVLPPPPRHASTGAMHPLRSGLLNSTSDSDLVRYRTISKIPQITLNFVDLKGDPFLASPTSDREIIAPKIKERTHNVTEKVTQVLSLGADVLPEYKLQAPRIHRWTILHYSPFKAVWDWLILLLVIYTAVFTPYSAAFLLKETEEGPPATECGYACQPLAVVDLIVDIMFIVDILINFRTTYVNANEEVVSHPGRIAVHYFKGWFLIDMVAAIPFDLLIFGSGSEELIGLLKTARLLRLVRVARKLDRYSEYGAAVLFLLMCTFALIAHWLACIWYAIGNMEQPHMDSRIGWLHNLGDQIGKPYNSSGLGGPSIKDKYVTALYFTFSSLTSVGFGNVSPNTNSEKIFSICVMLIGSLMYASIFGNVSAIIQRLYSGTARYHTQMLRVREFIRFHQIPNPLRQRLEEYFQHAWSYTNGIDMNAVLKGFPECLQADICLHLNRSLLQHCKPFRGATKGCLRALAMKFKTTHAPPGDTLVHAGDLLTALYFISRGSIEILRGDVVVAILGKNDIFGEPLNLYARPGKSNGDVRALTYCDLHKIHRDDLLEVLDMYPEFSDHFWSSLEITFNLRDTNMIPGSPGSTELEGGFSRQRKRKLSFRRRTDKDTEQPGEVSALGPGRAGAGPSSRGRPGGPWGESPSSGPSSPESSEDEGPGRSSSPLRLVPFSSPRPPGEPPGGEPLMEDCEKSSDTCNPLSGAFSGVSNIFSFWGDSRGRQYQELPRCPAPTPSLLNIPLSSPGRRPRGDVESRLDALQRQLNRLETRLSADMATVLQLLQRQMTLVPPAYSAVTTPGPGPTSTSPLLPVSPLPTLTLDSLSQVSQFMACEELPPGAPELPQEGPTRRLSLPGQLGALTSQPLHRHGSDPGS

Row | Structure (SMILES) | inhibition (Rattus norvegicus [1]) | IC50 [2] | Stability (Liver microsome) | Papp A→B [10] | also measured
1 | CC(C)N(C)[C@@H]1CC[C@H](N2CC[C@H](NC(=O)c3cccc(OC(F)(F)F)c3)C2=O)[C@H](CS(C)(=O)=O)C1 | 32% | 5 nM |  |  | 
2 | CC(C)N(C)[C@@H]1CC[C@H](N2CC[C@H](NC(=O)c3cccc(C(F)(F)F)c3)C2=O)[C@H](CS(C)(=O)=O)C1 | 3% | 1.8 nM | 100% | < 1.5 ×10⁻⁶ cm/s | Activity (Mus musculus [3]): Active; clearance [4]: 14 mL/min/kg; F (Cynomolgus monkey [5]): 9%; Activity (Mus musculus [6]): Active; clearance [7]: 3 mL/min/kg; F (Rattus norvegicus [8]): 1%; clearance [9]: 70 mL/min/kg; clearance [11]: 42 mL/min/kg; F (Canis familiaris [12]): 51%; F (Mus musculus [13]): 16%; inhibition (Homo sapiens): 22%
3 | CC(C)N(C)[C@@H]1CC[C@H](N2CC[C@H](NC(=O)c3cccc(C(C)(C)C)c3)C2=O)[C@H](CS(=O)(=O)C(C)C)C1 |  | 0.5 nM |  |  | 
4 | CCS(=O)(=O)C[C@@H]1C[C@H](N(C)C(C)C)CC[C@@H]1N1CC[C@H](NC(=O)c2cccc(C(F)(F)F)c2)C1=O | 26% | 1.2 nM | 100% | < 1.5 ×10⁻⁶ cm/s | inhibition (Homo sapiens): 4.2%
5 | Cc1ccc(C(=O)N[C@H]2CCN([C@H]3CC[C@@H](N(C)C(C)C)C[C@H]3CS(C)(=O)=O)C2=O)cc1C(F)(F)F | 36% | 5.2 nM |  |  | 
6 | CC(C)N(C)[C@@H]1CC[C@H](N2CC[C@H](NC(=O)c3cccc(C(F)(F)F)c3)C2=O)[C@H](CS(=O)(=O)C(C)(C)C)C1 | 48% | 0.96 nM | 100% | 3 ×10⁻⁶ cm/s | F (Rattus norvegicus [14]): 14%; F (Cynomolgus monkey [15]): 26%; clearance [4]: 12 mL/min/kg; F (Mus musculus [16]): 13%; Activity (Mus musculus [17]): inactive; clearance [18]: 25 mL/min/kg; clearance [7]: 5 mL/min/kg; Activity (Mus musculus [19]): Active; Activity (Mus musculus [20]): Active; clearance [21]: 54 mL/min/kg; inhibition (Homo sapiens): 19%; F (Canis familiaris [22]): 74%
7 | CC(C)N(C)[C@@H]1CC[C@H](N2CC[C@H](NC(=O)c3cccc(C(C)(C)C)n3)C2=O)[C@H](CS(C)(=O)=O)C1 | 46% | 0.7 nM |  |  | 
8 | CC(C)N(C)[C@@H]1CC[C@H](N2CC[C@H](NC(=O)c3cccc(C(F)(F)F)n3)C2=O)[C@H](CS(C)(=O)=O)C1 | 0% | 2.2 nM |  |  | IC50 [23]: > 80000 nM
9 | CC(C)N(C)[C@@H]1CC[C@H](N2CC[C@H](NC(=O)c3cc(F)cc(C(F)(F)F)c3)C2=O)[C@H](CS(=O)(=O)C(C)(C)C)C1 | 48% | 1.3 nM |  |  | IC50 [23]: > 80000 nM
10 | CCS(=O)(=O)C[C@@H]1C[C@H](N(C)C(C)C)CC[C@@H]1N1CC[C@H](NC(=O)c2cccc(-c3ccccc3)c2)C1=O |  | 1.1 nM |  |  | IC50 [23]: 60000 nM
11 | CC(C)N(C)[C@@H]1CC[C@H](N2CC[C@H](NC(=O)c3cccc(OC(F)(F)F)c3)C2=O)[C@H](CS(=O)(=O)C(C)(C)C)C1 | 61% | 1.2 nM |  |  | IC50 [23]: > 80000 nM
12 | CC(C)N(C)[C@@H]1CC[C@H](N2CC[C@H](NC(=O)c3cccc(C(F)(F)F)c3)C2=O)[C@H](CS(=O)(=O)C(C)C)C1 |  | 0.34 nM | 100% | < 1.5 ×10⁻⁶ cm/s | 
13 | CC(C)N(C)[C@@H]1CC[C@H](N2CC[C@H](NC(=O)c3cccc(C(C)(C)C)c3)C2=O)[C@H](CS(C)(=O)=O)C1 |  | 1.2 nM |  |  | 
14 | CC(C)N(C)[C@@H]1CC[C@H](N2CC[C@H](NC(=O)c3cccc(C(F)(F)F)c3)C2=O)[C@H](CS(=O)(=O)c2ccccc2)C1 |  |  | 88% | < 1.5 ×10⁻⁶ cm/s | IC50 [24]: 0.5 nM
